For series [1] the following is noted: for mass density: 101.33 kPa, Liquid, Vibrating tube method.
A short description of series [2]: xn = mol fraction of the nth substance listed. Conditions: x2 = 0.

Usually surface tension liquid-gas stands for the force per length acting along the surface. A word on the mass density: it is the mass of a sample divided by its volume.

± gives the expanded uncertainty stated by the source.

In the case of `CCCC(=O)O` [butanoic acid], the surface tension liquid-gas in series [1] (293.15 K) came out at 26.73 ± 0.78 mN/m; in series [1] (298.15 K), 26.19 ± 0.77 mN/m; in series [1] (303.15 K), 25.56 ± 0.76 mN/m; in series [1] (308.15 K) it was 25.03 ± 0.75 mN/m. The mass density in series [1] (293.15 K) is recorded as 957.61 ± 0.13 kg/m3; in series [1] (298.15 K), 952.77 ± 0.13 kg/m3; in series [1] (303.15 K), 947.94 ± 0.13 kg/m3; in series [1] (308.15 K), 942.91 ± 0.13 kg/m3.
In the case of `CCCCCC(=O)O` [hexanoic acid], the surface tension liquid-gas worked out at 28.12 ± 0.8 mN/m in series [1] (293.15 K), 27.54 ± 0.79 mN/m in series [1] (298.15 K), 27.12 ± 0.78 mN/m in series [1] (303.15 K) and 26.66 ± 0.78 mN/m in series [1] (308.15 K). In addition, the mass density was determined as 925.38 ± 0.14 kg/m3 in series [1] (293.15 K), 921.2 ± 0.14 kg/m3 in series [1] (298.15 K), 917.02 ± 0.14 kg/m3 in series [1] (303.15 K) and 912.6 ± 0.14 kg/m3 in series [1] (308.15 K).
Take `CCCCC(=O)O` [pentanoic acid]: the surface tension liquid-gas in series [1] (293.15 K) is given as 27.13 ± 0.79 mN/m; in series [1] (298.15 K), 26.8 ± 0.79 mN/m; in series [1] (303.15 K) it was 26.23 ± 0.78 mN/m; in series [1] (308.15 K), 25.8 ± 0.77 mN/m. The mass density in series [1] (293.15 K) is listed as 938.29 ± 0.3 kg/m3; in series [1] (298.15 K), 933.9 ± 0.3 kg/m3; in series [1] (303.15 K), 929.39 ± 0.3 kg/m3; in series [1] (308.15 K) it was 924.73 ± 0.3 kg/m3.
As for `CCC(=O)O` [propanoic acid], the surface tension liquid-gas was found to be 26.68 ± 0.78 mN/m in series [1] (293.15 K), 26.11 ± 0.77 mN/m in series [1] (298.15 K), 25.7 ± 0.76 mN/m in series [1] (303.15 K) and 25.16 ± 0.76 mN/m in series [1] (308.15 K). The mass density in series [1] (293.15 K) was 993.42 ± 0.12 kg/m3; in series [1] (298.15 K) it was 988.21 ± 0.12 kg/m3; in series [1] (303.15 K) it was 982.88 ± 0.12 kg/m3; in series [1] (308.15 K), 977.43 ± 0.12 kg/m3.
In the case of `O` [water] + CCC(=O)O, the surface tension liquid-gas was found to be 72.58 ± 1.4 mN/m in series [2] (293.15 K), 71.81 ± 1.4 mN/m in series [2] (298.15 K), 71.04 ± 1.4 mN/m in series [2] (303.15 K) and 70.23 ± 1.4 mN/m in series [2] (308.15 K).
In the same order, the values of `O` [water] + CCCC(=O)O are 72.58 ± 1.4 mN/m, 71.81 ± 1.4 mN/m, 71.04 ± 1.4 mN/m and 70.23 ± 1.4 mN/m.
For the compound `O` [water] + CCCCC(=O)O, the surface tension liquid-gas is given as 72.58 ± 1.4 mN/m in series [2] (293.15 K), 71.81 ± 1.4 mN/m in series [2] (298.15 K), 71.04 ± 1.4 mN/m in series [2] (303.15 K) and 70.23 ± 1.4 mN/m in series [2] (308.15 K).
With `O` [water] + CCCCCC(=O)O, the surface tension liquid-gas in series [2] (293.15 K) is on record as 72.58 ± 1.4 mN/m; in series [2] (298.15 K) it was 71.81 ± 1.4 mN/m; in series [2] (303.15 K), 71.04 ± 1.4 mN/m; in series [2] (308.15 K), 70.23 ± 1.4 mN/m.
